Measurements: patent US20240368163A1, “COMPOUNDS AND METHODS FOR MODULATING SPLICING” (REMIX THERAPEUTICS INC., priority 2021, published 2024)

Tests used:
Type in all cases: cell-based, human
[1] = system: MYB; assay: HiBiT protein abundance assay, MYB; details: Homo sapiens, K562, 24 h, Table 13A, modified K562 cells
How it was run: (§1)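 HiBiT-tagged endogenous targets in K562 cells treated 24 h at 37° C. with 10-point 3-fold dilutions (top 10 μM, DMSO ≤0.25%). Luminescence read after lytic LgBiT detection; response normalised to unmodified-cell and DMSO controls, IC50 interpolated at 50% from four-parameter logistic fit.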

[2] = system: SMN2; assay: Splicing RT-qPCR panel, SMN2 canonical junction (CJ) mRNA; details: Homo sapiens, RT-qPCR panel, canonical junction mRNA; compound concentration having 50% response in CJ decrease; read-out: SMN2 IC50 (decrease in CJ mRNA levels)
How it was run: (§2)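 Splicing switch read by one-step RT-qPCR of canonical and alternative exon junctions, housekeeper-normalized (GAPDH/GUSB/PPIA), 2^(−ΔΔCt) vs DMSO as percent response. Cells (A673 or K562) dosed 24 h, 11 points 3-fold from 10 uM, DMSO ≤0.25%.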

[3] = system: HTT; assay: Splicing RT-qPCR assay, HTT mRNA canonical junction (CJ) and alternative junction (AJ); details: Homo sapiens; for AC50: increase in AJ mRNA
How it was run: as §2

[4] = system: HTT; assay: HiBiT protein abundance assay, HTT; details: Homo sapiens, K562, 24 h, Table 13A, modified K562 cells
How it was run: as §1

[5] = system: MYB; assay: Splicing RT-qPCR assay, MYB mRNA canonical junction (CJ) and alternative junction (AJ); details: Homo sapiens; for AC50: increase in AJ mRNA
How it was run: as §2

[6] = system: Target C; assay: Splicing RT-qPCR panel, Target C canonical junction (CJ) mRNA; details: Homo sapiens, RT-qPCR panel, canonical junction mRNA; compound concentration having 50% response in CJ decrease; read-out: Target C IC50 (decrease in CJ mRNA levels)
How it was run: as §2

[7] = system: Target C; assay: HiBiT protein abundance assay, Target C; details: Homo sapiens, K562, 24 h, Table 13A, modified K562 cells
How it was run: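 HiBiT knock-in K562-derived cells seeded at 10000/well and treated with 10-point 3-fold dilutions (top final 10 μM, ≤0.25% DMSO) for 24 h at 37 °C. Lytic HiBiT luminescence normalised to unmodified-cell and DMSO controls; IC50 from 4-parameter fit at 50% abundance.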

[8] = 24 h, decrease in CJ mRNA, A673 or K562 cells, 24 hours treatment, RT-qPCR, read-out: HTT CJ IC50
[9] = 24 h, A673 or K562 cells, 24 hours treatment, RT-qPCR
[10] = RT-qPCR panel, canonical junction mRNA, compound concentration having 50% response in CJ decrease, read-out: HTT IC50 (decrease in CJ mRNA levels)
[11] = 24 h, decrease in CJ mRNA, A673 or K562 cells, 24 hours treatment, RT-qPCR, read-out: MYB CJ IC50
[12] = RT-qPCR panel, canonical junction mRNA, compound concentration having 50% response in CJ decrease, read-out: MYB IC50 (decrease in CJ mRNA levels)

Structure (SMILES)	IC50 [1] [nM]	IC50 [2] [nM]	IC50 [3, 8] [nM]	AC50 [3, 9] [nM]	IC50 [3, 10] [nM]	IC50 [4] [nM]	IC50 [5, 11] [nM]	AC50 [5, 9] [nM]	IC50 [5, 12] [nM]	IC50 [6] [nM]	IC50 [7] [nM]
CN(c1ccc(-c2ccc(-c3ccc(=O)n(C)c3)c3ncsc23)nn1)C1CC(C)(C)NC(C)(C)C1 [Compound 281]	1000 to 10000	100 to 1000	> 10000	> 10000	> 10000	1000 to 10000	1000 to 10000	> 10000	1000 to 10000	> 10000	1000 to 10000
c1nc2c(-c3cn[nH]c3)ccc(-c3ccc(N(C4CCNCC4)C4CC4)nn3)c2s1 [Compound 283]	100 to 1000	1000 to 10000	1000 to 10000	1000 to 10000	1000 to 10000	1000 to 10000	> 10000	> 10000	> 10000	1000 to 10000	1000 to 10000
CC1(C)CC(N(c2ccc(-c3ccc(-c4cn[nH]c4)c4ncsc34)nn2)C2CC2)CC(C)(C)N1 [Compound 284]	100 to 1000	100 to 1000	100 to 1000	100 to 1000	100 to 1000	100 to 1000	100 to 1000	> 10000	100 to 1000	1000 to 10000	1000 to 10000
CN(C)[C@H]1[C@@H]2CN(c3ccc(-c4ccc(-c5cn[nH]c5)c5ncsc45)nn3)C[C@@H]21 [Compound 285]	1000 to 10000	100 to 1000	> 10000	1000 to 10000	> 10000	1000 to 10000	> 10000	> 10000	> 10000	> 10000	> 10000
CN1CCC12CCN(c1ccc(-c3ccc(-c4cn[nH]c4)c4ncsc34)nn1)C2 (stereo not shown) [Compound 287]	100 to 1000	100 to 1000	> 10000	> 10000	> 10000	1000 to 10000	> 10000	> 10000	> 10000	> 10000	1000 to 10000
CN1CCCC2(CCN2c2ccc(-c3ccc(-c4cn[nH]c4)c4ncsc34)nn2)C1 (stereo not shown) [Compound 288]	100 to 1000	1000 to 10000	> 10000	> 10000	> 10000	1000 to 10000	> 10000	> 10000	> 10000	> 10000	1000 to 10000
CN1CCC2(CC1)CCN2c1ccc(-c2ccc(-c3cn[nH]c3)c3ncsc23)nn1 [Compound 289]	100 to 1000	> 10000	> 10000	> 10000	> 10000	1000 to 10000	1000 to 10000	> 10000	1000 to 10000	> 10000	> 10000
[2H]C([2H])([2H])N(c1ccc(-c2ccc(-c3cn[nH]c3)c3cn[nH]c23)nn1)C1CC(C)(C)NC(C)(C)C1 [Compound 292]	100 to 1000	< 100	100 to 1000	100 to 1000	100 to 1000	100 to 1000	100 to 1000	1000 to 10000	100 to 1000	1000 to 10000	100 to 1000
CCN(c1ccc(-c2ccc(-c3cn[nH]c3)c3cn[nH]c23)nn1)C1CC(C)(C)NC(C)(C)C1 [Compound 293]	1000 to 10000	100 to 1000	1000 to 10000	1000 to 10000	1000 to 10000	1000 to 10000	1000 to 10000	> 10000	1000 to 10000	> 10000	1000 to 10000
CN(c1ccc(-c2ccc(-c3cn[nH]c3)c3cn[nH]c23)nn1)[C@@H]1C[C@H]2CCC[C@@H](C1)N2 [Compound 295]	< 100	< 100		< 100	< 100	< 100	< 100	100 to 1000	< 100	< 100	< 100
[2H]C([2H])([2H])N(c1ccc(-c2ccc(-c3cn[nH]c3)c3cn[nH]c23)nn1)[C@@H]1C[C@H]2CCC[C@@H](C1)N2 [Compound 296]	< 100	< 100		< 100	< 100	< 100	100 to 1000	< 100	100 to 1000	< 100	< 100
CCN(c1ccc(-c2ccc(-c3cn[nH]c3)c3cn[nH]c23)nn1)[C@@H]1C[C@H]2CCC[C@@H](C1)N2 [Compound 297]	100 to 1000	< 100	100 to 1000	100 to 1000	100 to 1000	100 to 1000	100 to 1000	100 to 1000	100 to 1000	100 to 1000	100 to 1000
CCN(c1ccc(-c2ccc(-c3cn[nH]c3)c3cn[nH]c23)nn1)[C@@H]1C[C@H]2CC[C@@H](C1)N2 [Compound 300]	100 to 1000	100 to 1000	100 to 1000	100 to 1000	100 to 1000	100 to 1000	1000 to 10000	100 to 1000	1000 to 10000	100 to 1000	100 to 1000
CN(c1ccc(-c2ccc(-c3cn[nH]c3)c3cn[nH]c23)nn1)[C@H]1[C@@H]2CNC[C@@H]21 [Compound 301]	1000 to 10000	> 10000	> 10000	> 10000	> 10000	> 10000	> 10000	> 10000	> 10000	> 10000	> 10000
CN1C[C@@H]2[C@H](C1)[C@H]2N(C)c1ccc(-c2ccc(-c3cn[nH]c3)c3cn[nH]c23)nn1 [Compound 302]	1000 to 10000	> 10000	> 10000	> 10000	> 10000	> 10000	> 10000	> 10000	> 10000	> 10000	> 10000
